From patent US20230085307A1, “PYRIDAZINONE COMPOUND AND HERBICIDE” (NISSAN CHEMICAL CORPORATION, priority 2019, published 2023)

Key:
velvetleaf [1] = experiment: Test Example 4: herbicidal effect by soil treatment (Table 19, symbol M); format: in vivo, velvetleaf (Abutilon theophrasti); conditions: amount of applied herbicide 320 g/ha
How it was run: (§1)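 In this soil treatment, the formulated compound reached the seeds only through the soil: seeds were buried about 1.5 cm deep in sterilized diluvial soil, then the diluted emulsion was sprayed over the surface. After three weeks at 25° C. to 30° C. in a greenhouse, effects were graded on criteria from an earlier test.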

Italian ryegrass [2] = experiment: Test Example 5: herbicidal effect by foliage application, plastic box (Table 20, symbol K); format: in vivo, Italian ryegrass (Lolium multiflorum); conditions: foliage application, 320 g/ha, evaluated three weeks after application
How it was run: (§2)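 Plants were sown into sterilized diluvial soil under about 1.5 cm cover and kept in a greenhouse at 25° C. to 30° C. Fourteen days on, foliage received an even spray of the diluted emulsion. Herbicidal or crop effect was judged three weeks afterwards.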

persian speedwell [3] = experiment: Test Example 5: herbicidal effect by foliage application, plastic box (Table 20, symbol R); format: in vivo, Persian speedwell (Veronica persica); conditions: foliage application, 320 g/ha, evaluated three weeks after application
How it was run: as §2

redroot pigweed [4] = experiment: Test Example 5: herbicidal effect by foliage application, plastic box (Table 20, symbol N); format: in vivo, redroot pigweed (Amaranthus retroflexus); conditions: foliage application, 320 g/ha, evaluated three weeks after application
How it was run: as §2

green foxtail [5] = experiment: Test Example 4: herbicidal effect by soil treatment (Table 19, symbol G); format: in vivo, green foxtail (Setaria viridis); conditions: amount of applied herbicide 320 g/ha
How it was run: as §1

chickweed [6] = experiment: Test Example 5: herbicidal effect by foliage application, plastic box (Table 20, symbol P); format: in vivo, common chickweed (Stellaria media); conditions: foliage application, 320 g/ha, evaluated three weeks after application
How it was run: as §2

barnyard grass [7] = experiment: Test Example 3: herbicidal effect by foliage application, Wagner pot (Table 18, symbol H); format: in vivo, barnyard grass (Echinochloa crus-galli); conditions: amount of applied herbicide 320 g/ha
How it was run: (§3)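 Plants were sown in alluvial soil held under 0.1–0.5 cm standing water and grown 14 days in a greenhouse at 25–30 °C. An emulsifiable formulation, water-diluted to the set dose, was then sprayed onto the foliage, and effects were scored three weeks later using previously defined criteria.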

southern crabgrass [8] = experiment: Test Example 5: herbicidal effect by foliage application, plastic box (Table 20, symbol F); format: in vivo, southern crabgrass (Digitaria ciliaris); conditions: foliage application, 320 g/ha, evaluated three weeks after application
How it was run: as §2

lambsquarters [9] = experiment: Test Example 5: herbicidal effect by foliage application, plastic box (Table 20, symbol O); format: in vivo, lambsquarters (Chenopodium album); conditions: foliage application, 320 g/ha, evaluated three weeks after application
How it was run: as §2

Italian ryegrass [10] = experiment: Test Example 4: herbicidal effect by soil treatment (Table 19, symbol K); format: in vivo, Italian ryegrass (Lolium multiflorum); conditions: amount of applied herbicide 320 g/ha
How it was run: as §1

rice flat sedge = experiment: Test Example 3: herbicidal effect by foliage application, Wagner pot (Table 18, symbol E); format: in vivo, rice flat sedge (Cyperus iria); conditions: amount of applied herbicide 320 g/ha
How it was run: as §3

southern crabgrass [11] = experiment: Test Example 4: herbicidal effect by soil treatment (Table 19, symbol F); format: in vivo, southern crabgrass (Digitaria ciliaris); conditions: amount of applied herbicide 320 g/ha
How it was run: as §1

windgrass [12] = experiment: Test Example 4: herbicidal effect by soil treatment (Table 19, symbol L); format: in vivo, windgrass (Apera spica-venti); conditions: amount of applied herbicide 320 g/ha
How it was run: as §1

chickweed [13] = experiment: Test Example 4: herbicidal effect by soil treatment (Table 19, symbol P); format: in vivo, common chickweed (Stellaria media); conditions: amount of applied herbicide 320 g/ha
How it was run: as §1

barnyard grass [14] = experiment: Test Example 5: herbicidal effect by foliage application, plastic box (Table 20, symbol H); format: in vivo, barnyard grass (Echinochloa crus-galli); conditions: foliage application, 320 g/ha, evaluated three weeks after application
How it was run: as §2

wild oat [15] = experiment: Test Example 5: herbicidal effect by foliage application, plastic box (Table 20, symbol I); format: in vivo, wild oat (Avena fatua); conditions: foliage application, 320 g/ha, evaluated three weeks after application
How it was run: as §2

Chinese sprangletop = experiment: Test Example 3: herbicidal effect by foliage application, Wagner pot (Table 18, symbol D); format: in vivo, chinese sprangletop (Leptochloa chinensis); conditions: amount of applied herbicide 320 g/ha
How it was run: as §3

blackgrass [16] = experiment: Test Example 4: herbicidal effect by soil treatment (Table 19, symbol J); format: in vivo, blackgrass (Alopecurus myosuroides); conditions: amount of applied herbicide 320 g/ha
How it was run: as §1

wild oat [17] = experiment: Test Example 4: herbicidal effect by soil treatment (Table 19, symbol I); format: in vivo, wild oat (Avena fatua); conditions: amount of applied herbicide 320 g/ha
How it was run: as §1

windgrass [18] = experiment: Test Example 5: herbicidal effect by foliage application, plastic box (Table 20, symbol L); format: in vivo, windgrass (Apera spica-venti); conditions: foliage application, 320 g/ha, evaluated three weeks after application
How it was run: as §2

lambsquarters [19] = experiment: Test Example 4: herbicidal effect by soil treatment (Table 19, symbol O); format: in vivo, lambsquarters (Chenopodium album); conditions: amount of applied herbicide 320 g/ha
How it was run: as §1

green foxtail [20] = experiment: Test Example 5: herbicidal effect by foliage application, plastic box (Table 20, symbol G); format: in vivo, green foxtail (Setaria viridis); conditions: foliage application, 320 g/ha, evaluated three weeks after application
How it was run: as §2

velvetleaf [21] = experiment: Test Example 5: herbicidal effect by foliage application, plastic box (Table 20, symbol M); format: in vivo, velvetleaf (Abutilon theophrasti); conditions: foliage application, 320 g/ha, evaluated three weeks after application
How it was run: as §2

persian speedwell [22] = experiment: Test Example 4: herbicidal effect by soil treatment (Table 19, symbol R); format: in vivo, Persian speedwell (Veronica persica); conditions: amount of applied herbicide 320 g/ha
How it was run: as §1

barnyard grass [23] = experiment: Test Example 4: herbicidal effect by soil treatment (Table 19, symbol H); format: in vivo, barnyard grass (Echinochloa crus-galli); conditions: amount of applied herbicide 320 g/ha
How it was run: as §1

blackgrass [24] = experiment: Test Example 5: herbicidal effect by foliage application, plastic box (Table 20, symbol J); format: in vivo, blackgrass (Alopecurus myosuroides); conditions: foliage application, 320 g/ha, evaluated three weeks after application
How it was run: as §2

redroot pigweed [25] = experiment: Test Example 4: herbicidal effect by soil treatment (Table 19, symbol N); format: in vivo, redroot pigweed (Amaranthus retroflexus); conditions: amount of applied herbicide 320 g/ha
How it was run: as §1

Row | SMILES | herbicidal effect on M: velvetleaf (velvetleaf [1]) | herbicidal effect on K: Italian ryegrass (criteria 0-5) (Italian ryegrass [2]) | herbicidal effect on R: persian speedwell (criteria 0-5) (persian speedwell [3]) | herbicidal effect on N: redroot pigweed (criteria 0-5) (redroot pigweed [4]) | herbicidal effect on G: green foxtail (green foxtail [5]) | herbicidal effect on P: chickweed (criteria 0-5) (chickweed [6]) | herbicidal effect on H: barnyard grass (barnyard grass [7]) | herbicidal effect on F: southern crabgrass (criteria 0-5) (southern crabgrass [8]) | herbicidal effect on O: lambsquarters (criteria 0-5) (lambsquarters [9]) | herbicidal effect on K: Italian ryegrass (Italian ryegrass [10]) | herbicidal effect on E: rice flat sedge (rice flat sedge) | herbicidal effect on F: southern crabgrass (southern crabgrass [11]) | herbicidal effect on L: windgrass (windgrass [12]) | herbicidal effect on P: chickweed (chickweed [13]) | herbicidal effect on H: barnyard grass (criteria 0-5) (barnyard grass [14]) | herbicidal effect on I: wild oat (criteria 0-5) (wild oat [15]) | herbicidal effect on D: Chinese sprangletop (Chinese sprangletop) | herbicidal effect on J: blackgrass (blackgrass [16]) | herbicidal effect on I: wild oat (wild oat [17]) | herbicidal effect on L: windgrass (criteria 0-5) (windgrass [18]) | also measured
1 | Cc1nn(C)c(=O)c(-c2c(-c3cccc(C(F)(F)F)c3)sc3ccc(F)cc23)c1O [2-231] | 0 (Herbicidal rate of 5% or less (almost no effect)) | 0 (Herbicidal rate of 5% or less (almost no effect)) | 4 (Herbicidal rate of 70% or more and less than 90%) | 3 (Herbicidal rate of 40% or more and less than 70%) | 0 (Herbicidal rate of 5% or less (almost no effect)) | 5 (Herbicidal rate of 90% or more (almost completely withered)) | 4 (Herbicidal rate of 70% or more and less than 90%) | 0 (Herbicidal rate of 5% or less (almost no effect)) | 3 (Herbicidal rate of 40% or more and less than 70%) | 0 (Herbicidal rate of 5% or less (almost no effect)) | 5 (Herbicidal rate of 90% or more (almost completely withered)) | 0 (Herbicidal rate of 5% or less (almost no effect)) | 0 (Herbicidal rate of 5% or less (almost no effect)) | 3 (Herbicidal rate of 40% or more and less than 70%) | 2 (Herbicidal rate of 20% or more and less than 40%) | 0 (Herbicidal rate of 5% or less (almost no effect)) | 3 (Herbicidal rate of 40% or more and less than 70%) | 0 (Herbicidal rate of 5% or less (almost no effect)) | 0 (Herbicidal rate of 5% or less (almost no effect)) | 4 (Herbicidal rate of 70% or more and less than 90%) | herbicidal effect on O: lambsquarters (lambsquarters [19]): 1 (Herbicidal rate of 5% or more and less than 20%); herbicidal effect on G: green foxtail (criteria 0-5) (green foxtail [20]): 3 (Herbicidal rate of 40% or more and less than 70%); herbicidal effect on M: velvetleaf (criteria 0-5) (velvetleaf [21]): 4 (Herbicidal rate of 70% or more and less than 90%); herbicidal effect on R: persian speedwell (persian speedwell [22]): 0 (Herbicidal rate of 5% or less (almost no effect)); herbicidal effect on H: barnyard grass (barnyard grass [23]): 0 (Herbicidal rate of 5% or less (almost no effect)); herbicidal effect on J: blackgrass (criteria 0-5) (blackgrass [24]): 0 (Herbicidal rate of 5% or less (almost no effect)); herbicidal effect on N: redroot pigweed (redroot pigweed [25]): 0 (Herbicidal rate of 5% or less (almost no effect))
2 | CSc1cccc(-c2sc3ccc(F)cc3c2-c2c(O)c(C)nn(C)c2=O)c1 [2-240] | 1 (Herbicidal rate of 5% or more and less than 20%) | 3 (Herbicidal rate of 40% or more and less than 70%) | 5 (Herbicidal rate of 90% or more (almost completely withered)) | 5 (Herbicidal rate of 90% or more (almost completely withered)) | 5 (Herbicidal rate of 90% or more (almost completely withered)) | 5 (Herbicidal rate of 90% or more (almost completely withered)) | 4 (Herbicidal rate of 70% or more and less than 90%) | 5 (Herbicidal rate of 90% or more (almost completely withered)) | 5 (Herbicidal rate of 90% or more (almost completely withered)) | 0 (Herbicidal rate of 5% or less (almost no effect)) | 4 (Herbicidal rate of 70% or more and less than 90%) | 4 (Herbicidal rate of 70% or more and less than 90%) | 0 (Herbicidal rate of 5% or less (almost no effect)) | 1 (Herbicidal rate of 5% or more and less than 20%) | 3 (Herbicidal rate of 40% or more and less than 70%) | 5 (Herbicidal rate of 90% or more (almost completely withered)) | 3 (Herbicidal rate of 40% or more and less than 70%) | 0 (Herbicidal rate of 5% or less (almost no effect)) | 1 (Herbicidal rate of 5% or more and less than 20%) | 4 (Herbicidal rate of 70% or more and less than 90%) | herbicidal effect on O: lambsquarters (lambsquarters [19]): 3 (Herbicidal rate of 40% or more and less than 70%); herbicidal effect on G: green foxtail (criteria 0-5) (green foxtail [20]): 5 (Herbicidal rate of 90% or more (almost completely withered)); herbicidal effect on M: velvetleaf (criteria 0-5) (velvetleaf [21]): 4 (Herbicidal rate of 70% or more and less than 90%); herbicidal effect on R: persian speedwell (persian speedwell [22]): 5 (Herbicidal rate of 90% or more (almost completely withered)); herbicidal effect on H: barnyard grass (barnyard grass [23]): 2 (Herbicidal rate of 20% or more and less than 40%); herbicidal effect on J: blackgrass (criteria 0-5) (blackgrass [24]): 3 (Herbicidal rate of 40% or more and less than 70%); herbicidal effect on N: redroot pigweed (redroot pigweed [25]): 4 (Herbicidal rate of 70% or more and less than 90%)
